“Also recorded” adds a separate entry of the source.
Tests used:
epidermal ODC protein = experiment: TPA-induced epidermal ODC protein expression (western blot); assay type: in vivo, mouse
Protocol: FIG. 4. Inhibitory effect of Lupeol on TPA-induced epidermal ODC, iNOS and COX-2 protein expression in CD-1 mice: At different times after treatment, the animals were sacrificed, epidermal protein lysate was prepared, and ODC and COX-2 protein expression were determined. Equal loading of protein was confirmed by stripping the immunoblot and reprobing it for β-actin. The immunoblots shown here are representative of three independent experiments with similar results. The values above each lane indicate relative density of the band normalized to β-actin.
(§1) The animals were shaved on the dorsal side of the skin, divided into four groups and treated topically on the shaved area with either 0.4 ml vehicle (acetone), or TPA (3.2 nmol/0.4 ml acetone/animal, v/v), or Lupeol (1 or 2 mg/0.2 ml acetone/animal, w/v) followed 30 min later with TPA (3.2 nmol/0.2 ml acetone/animal). Animals were sacrificed at different times point i.e. 6, 12, 24 and 48 h post TPA treatment. […]
(§2) Epidermis from the whole skin was separated as described earlier (Katiyar et al., 1999) and was homogenized in ice-cold lysis buffer [50 mM Tris-HCl, 150 mM NaCl, 1 mM EGTA, 1 mM EDTA, 20 mM NaF, 100 mM Na3VO4, 0.5% NP-40, 1% Triton X-100, 1 mM PMSF (pH 7.4)] with freshly added protease inhibitor cocktail, Protease Inhibitor Cocktail Set III (Calbiochem, La Jolla, Calif., USA). […] The protein content in the lysates was measured by DC BioRad assay (BioRad Laboratories, Hercules, Calif.) as per the manufacturer's protocol.
For western blot analysis, 40 μg of the protein was resolved over 8-12% polyacrylamide gels and transferred to a nitrocellulose membrane. […] This was followed by incubation with anti-mouse or anti-rabbit secondary antibody horse-radish peroxidase (Amersham Life Sciences, Inc., USA) for 1 h and then washed several times and detected by chemiluminescence ECL kit, (Amersham Life Sciences, Inc., USA) and autoradiography using XAR-5 film obtained from Eastman Kodak Co. (Rochester, N.Y., USA). […]

NFκB/p65 = experiment: TPA-induced NFκB/p65 activation and nuclear translocation (western blot); assay type: in vivo, mouse; conditions: topical Lupeol prior to TPA
Protocol: FIG. 7. Inhibitory effect of Lupeol on TPA-induced NF-κB activation and its subsequent translocation to nucleus in CD-1 mice. (a) At different times after treatment, the animals were sacrificed, nuclear lysates were prepared, and protein expression was determined. The values above each lane indicate relative density of the band.
as §1
as §2, with “protocol. […]” for “protocol.”

[1] = system: Fas receptor, FADD and other death receptors in LNCaP cells; experiment: Death receptor mediated apoptotic pathway in LNCaP cells (western blot); assay type: cell-based, human
Protocol: FIG. 14 depicts effect of Lupeol treatment on death receptor mediated apoptotic pathway in LNCaP cells: Cells were treated with vehicle (DMSO+alcohol) only or specified concentrations of Lupeol for 48 h, harvested and total cell lysates were prepared. The expression of death receptors including Fas and death adaptor proteins including FADD were determined by western blot analysis. Equal loading was confirmed by stripping immunoblots and reprobing them for β-actin. The immunoblots shown here are representative of three independent experiments with similar results.

[2] = system: p38, Erk1/2, p21, Cyclin D-2 in AsPC-1 cells; experiment: MAP kinase phosphorylation and p21, Cyclin D-2 expression in AsPC-1 cells; assay type: cell-based
From the text: FIG. 25 depicts effect of Lupeol treatment on the phosphorylation of p38 and Erk1/2 in MAP kinase signaling and p21 and Cyclin D-2 protein expression in AsPC-1 cells.

C=C(C)[C@@H]1CC[C@]2(C)CC[C@]3(C)[C@H](CC[C@@H]4[C@@]5(C)CC[C@H](O)C(C)(C)[C@@H]5CC[C@]43C)[C@@H]12 [Lupeol, Lup-20(29)-en-3β-ol]
epidermal ODC protein expression after Lupeol alone (epidermal ODC protein; Lupeol alone up to 2 mg/animal): without any effect on enzyme level
inhibition of TPA-caused induction of epidermal ODC protein expression (densitometry) (epidermal ODC protein; Lupeol-pretreated animals, 1 or 2 mg, all time points): 50-70%
TPA-induced NFκB/p65 activation and nuclear translocation (NFκB/p65): inhibited
expression of cell death-inducing receptor ligands FAS-L, APO-3L and TRAIL [1]: no significant change
expression/activation of other death receptors (TRADD, TNFR-1, APO-3, DR-4/5) [1]: no change in the protein expression; also recorded: No other death receptor such as TNFR1, DR4/5 were activated
expression of FADD protein ([1]; 48 h): increase in the expression of FADD protein; also recorded: induces the expression
expression of FAS receptor protein ([1]; 48 h): significant increase; also recorded: induces the expression
Cyclin-D2 protein expression [2]: decrease in Cyclin-D2 protein expression
expression of p-21 [2]: increase in the expression of p-21
phosphorylation of Erk 1/2 [2]: increase in the phosphorylation of Erk 1/2
phosphorylation of p38 [2]: significant reduction
